Measurements: ChEMBL document CHEMBL5385887, “Discovery of Sibiriline derivatives as novel receptor-interacting protein kinase 1 inhibitors” (Eur J Med Chem, 2023)
Active and inactive are the calls of the source. No cut-off for these calls is given here.

How the values were obtained:
L929 = experiment: Anti-necroptosis activity against TNFalpha/z-VAD-fmk-induced mouse L929 cell necroptosis model assessed as cell viability pretreated with compound for 1 hr followed by treated with TZ for 6 hrs; format: functional, cell-based
[1] = biological target: T1, Receptor-interacting serine/threonine-protein kinase 1 (Homo sapiens, UniProt Q13546); experiment: Inhibition of RIPK1 (unknown origin) using MBP substrate incubated for 2 hrs by ADP-Glo kinase function assay
T1 sequence (Q13546 whole entry): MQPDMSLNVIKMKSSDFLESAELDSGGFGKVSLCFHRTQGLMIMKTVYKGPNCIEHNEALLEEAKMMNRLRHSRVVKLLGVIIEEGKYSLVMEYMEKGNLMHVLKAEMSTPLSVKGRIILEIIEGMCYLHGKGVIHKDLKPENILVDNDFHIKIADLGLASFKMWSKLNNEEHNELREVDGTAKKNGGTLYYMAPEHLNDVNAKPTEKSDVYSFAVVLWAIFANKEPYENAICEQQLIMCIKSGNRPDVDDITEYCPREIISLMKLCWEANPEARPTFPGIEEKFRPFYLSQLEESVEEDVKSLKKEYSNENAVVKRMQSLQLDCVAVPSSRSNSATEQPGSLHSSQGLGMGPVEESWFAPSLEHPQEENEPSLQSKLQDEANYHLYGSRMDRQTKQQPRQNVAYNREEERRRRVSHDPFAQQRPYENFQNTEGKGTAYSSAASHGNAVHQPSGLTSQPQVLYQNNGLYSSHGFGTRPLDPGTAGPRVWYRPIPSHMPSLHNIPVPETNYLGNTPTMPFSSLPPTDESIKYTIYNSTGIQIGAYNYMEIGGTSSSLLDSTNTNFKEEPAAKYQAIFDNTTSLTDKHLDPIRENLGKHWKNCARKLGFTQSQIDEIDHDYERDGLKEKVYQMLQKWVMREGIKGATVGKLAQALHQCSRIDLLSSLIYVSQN

[2] = Cytotoxicity against mouse L929 cells by CCK-8 assay; format: toxicity, cell-based
Mus musculus = experiment: In vivo anti-necroptotic effect in TNFalpha-induced systemic inflammatory response syndrome C57BL/6J mouse model assessed as reduction in hypothermic injury by measuring increase in survival at 10 mg/kg, ip followed by compound treatment after 1 hr injected moue TNFalpha and measured continuously upto 72 hrs; format: functional; settings: time 73 hrs
HT-29 = experiment: Anti-necroptosis activity against TS-induced human HT-29 cell necroptosis model assessed as cell viability at 0.039 to 10 uM pretreated with compound for 1 hr followed by treated with TS for 12 hrs; format: functional, cell-based; settings: dose 0.039-10 µM

| SMILES | EC50 (L929) | IC50 [1] | CC50 [2] | survival at 10 mg/kg (Mus musculus) | Activity (HT-29) |
| --- | --- | --- | --- | --- | --- |
| Nc1ccc(-c2cc3cccnc3[nH]2)cc1 | 270 nM | 240 nM | > 50000 nM | – | – |
| CN1CCN(C(=O)c2ccc(-c3cc4cccnc4[nH]3)cc2)CC1 | 60 nM | 100 nM | > 20000 nM | – | – |
| CCNC(=O)c1ccc(-c2cc3cccnc3[nH]2)cc1 | 240 nM | 180 nM | > 50000 nM | – | – |
| c1cnc2[nH]c(-c3ccc4ncsc4c3)cc2c1 | 340 nM | 350 nM | > 50000 nM | – | – |
| Oc1ccc(-c2ccnc3[nH]ccc23)cc1 | > 10000 nM | – | > 50000 nM | – | – |
| O=C(c1ccc(-c2cc3cccnc3[nH]2)cc1)N1CCNCC1 | 90 nM | 100 nM | > 50000 nM | – | – |
| Oc1ccc(-c2cnc3nccnc3c2)cc1 | > 10000 nM | – | > 50000 nM | – | – |
| O=C(NC1CC1)c1ccc(-c2cc3cccnc3[nH]2)cc1 | 190 nM | 200 nM | > 50000 nM | – | – |
| CC(C)(C)Oc1ccc(-c2cnc3[nH]ccc3c2)cc1 | > 10000 nM | – | > 20000 nM | – | – |
| NC(=O)c1ccc(-c2cnc3[nH]ccc3c2)cc1 | 710 nM | 170 nM | > 50000 nM | – | – |
| COc1ccc(-c2cc3ccc[nH]c-3n2)cc1 | 150 nM | 90 nM | > 50000 nM | – | – |
| O/N=C/c1ccc(-c2cnc3[nH]ccc3c2)cc1 | 4270 nM | 3660 nM | > 20000 nM | – | – |
| CN1C(=O)C(Cc2c[nH]c3ccccc23)NC1=S (stereo unspecified) [NECROSTATIN] | – | – | – | 25% | – |
| CC(C)(C)Oc1ccc(-c2cc3cccnc3[nH]2)cc1 | 170 nM | 220 nM | > 50000 nM | – | – |
| Oc1ccc(-c2cnc3[nH]ccc3n2)cc1 | 5100 nM | 4860 nM | > 50000 nM | – | – |
| CC(C)N(C(=O)c1ccc(-c2cc3cccnc3[nH]2)cc1)C(C)C | 190 nM | 130 nM | > 50000 nM | – | – |
| Oc1ccc(-c2cc3cccnc3[nH]2)cc1Cl | 5140 nM | 3870 nM | > 50000 nM | – | – |
| O=C(c1ccc(-c2cc3cccnc3[nH]2)cc1)N1CCCC1 | 260 nM | 140 nM | > 50000 nM | – | – |
| O/N=C/c1ccc(-c2cc3cccnc3[nH]2)cc1 | 670 nM | 270 nM | > 50000 nM | – | – |
| Oc1ccccc1-c1cnc2[nH]ccc2c1 | > 10000 nM | – | > 50000 nM | – | – |
| NC(=O)c1ccc(-c2cc3cccnc3[nH]2)cc1 | 90 nM | 110 nM | > 50000 nM | – | – |
| Oc1ccc(-c2cnc3[nH]ccc3c2)cc1 | 1470 nM | 1090 nM | > 50000 nM | – | – |

| SMILES | EC50 (L929) | IC50 [1] | CC50 [2] | survival at 10 mg/kg (Mus musculus) | Activity (HT-29) |
| --- | --- | --- | --- | --- | --- |
| c1cnc2[nH]c(-c3ccc4c(c3)CCCO4)cc2c1 | 890 nM | 1180 nM | > 50000 nM | – | – |
| Oc1ccc2ccc(-c3cc4cccnc4[nH]3)cc2c1 | 1420 nM | 2600 nM | > 50000 nM | – | – |
| c1ccc(Oc2ccc(-c3cc4cccnc4[nH]3)cc2)cc1 | 7540 nM | 9000 nM | > 50000 nM | – | – |
| OCc1ccc(-c2cc3cccnc3[nH]2)cc1 | 140 nM | 170 nM | > 50000 nM | – | – |
| Oc1ccc(-c2ccc3cc[nH]c3n2)cc1 | > 10000 nM | – | > 50000 nM | – | – |
| Oc1ccc(-c2ccc(-c3cc4cccnc4[nH]3)cc2)cc1 | 350 nM | 230 nM | > 10000 nM | – | – |
| Oc1ccc(-c2cc3cccnc3[nH]2)cc1F | 1180 nM | 2560 nM | > 50000 nM | – | – |
| Oc1ccccc1-c1cc2cccnc2[nH]1 | 1140 nM | 950 nM | > 50000 nM | – | – |
| Oc1cccc(-c2cnc3[nH]ccc3c2)c1 | > 10000 nM | – | > 50000 nM | – | – |
| CNC(=O)c1ccc(-c2cc3cccnc3[nH]2)cc1 | 95 nM | 93 nM | > 50000 nM | – | – |
| CCCNC(=O)c1ccc(-c2cc3cccnc3[nH]2)cc1 | 810 nM | 630 nM | > 50000 nM | – | – |
| c1ccc(Oc2ccccc2-c2cnc3[nH]ccc3c2)cc1 | > 10000 nM | – | > 20000 nM | – | – |
| N#Cc1ccc(-c2cnc3[nH]ccc3c2)cc1 | 1850 nM | 1170 nM | > 50000 nM | – | – |
| CC(C)(C)NC(=O)c1ccc(-c2cc3cccnc3[nH]2)cc1 | 170 nM | 90 nM | > 50000 nM | – | – |
| Oc1ccc(-c2cnc3[nH]cnc3c2)cc1 | > 10000 nM | – | > 50000 nM | – | – |
| Oc1ccc(-c2cc3cccnc3[nH]2)cc1 | 1310 nM | – | > 50000 nM | – | inactive |
| O=C(c1ccc(-c2cc3cccnc3[nH]2)cc1)N1CCCCC1 | 130 nM | 120 nM | > 50000 nM | – | – |
| CC(C)NC(=O)c1ccc(-c2cc3cccnc3[nH]2)cc1 | 810 nM | 500 nM | > 50000 nM | – | – |
| Oc1cccc(-c2cc3cccnc3[nH]2)c1 | 1230 nM | 1080 nM | > 50000 nM | – | – |
| COc1cc(-c2cc3cccnc3[nH]2)ccc1O | 140 nM | 120 nM | > 50000 nM | – | – |
| OCCc1ccc(-c2cc3cccnc3[nH]2)cc1 | 300 nM | 230 nM | > 50000 nM | – | – |
| Oc1ccc(-c2c[nH]c3ncccc23)cc1 | > 10000 nM | – | > 50000 nM | – | – |
